Activity calls are given as the source filed them. No rule for the calls is given here.

In this experiment the target is Alkaline phosphatase, placental type (Homo sapiens) (UniProt P05187). Put plainly: activation of placental alkaline phosphatase – biochemical, uHTS hits, mouse IAP activator project, dose response (AID 488878). To be noted: purified human PLAP enzyme activity.
Regarding `CCOC(=O)C(C)Sc1nc2c(c(=O)[nH]c(=O)n2C)n1C/C=C(/C)Cl` (configuration not stated), the EC50 (commonly the concentration at which the effect is half-maximal) was 84.8 µM. The same measure for `Oc1ccc(-c2csc(Nc3ccccn3)n2)cc1O`: 45.8 µM; for `Oc1ccc(-c2cn3c(n2)SCC3)cc1O`: 55.6 µM. The same measure for `O=C(O)CC(CCc1ccccc1)OC1OC(CO)C(O)C(O)C1O` (configuration not stated): 73 µM. The same measure for `CCn1nc(C)c(CN2CCC(C(=O)Nc3cccc(-c4cccc(F)c4)c3)CC2)c1C`: 65.1 µM; for `CCOc1cc(/C=C2\CCC/C(=C\c3cc(Cl)c(O)c(OCC)c3)C2=O)cc(Cl)c1O`: > 100 µM (inactive). Turning to `COc1ccccc1CNC(=O)CCNS(=O)(=O)c1ccc2[nH]c(=O)oc2c1`, the EC50 was 49 µM. To `NNC(=O)c1cc(O)c(O)c(O)c1` belongs 69.3 µM; to `O=C1/C(=C/C=C/c2ccco2)SC(=S)N1NS(=O)(=O)c1ccccc1`, > 100 µM (inactive). To `O=C1CC(c2ccc(O)c(O)c2)Oc2cc(O)cc(O)c21` (configuration not stated) belongs 60.3 µM.

For `N#C/C(=C\c1coc2ccc(O)cc2c1=O)C(=O)Nc1nc2ccccc2s1`, the EC50 was 91.1 µM. Take `C[N+](C)(C)C(Cc1ccccc1)C(=O)[O-]` (configuration not stated): the EC50 was 59.7 µM.

Consider `O=C1/C(=C/C=C/c2ccco2)SC(=S)N1c1ccc(O)cc1`, for which the EC50 was 61.8 µM. For `CC1(C(=O)NNC(=O)c2ccc(=O)oc2)CC1Br` (configuration not stated), the EC50 was 57.9 µM. Turning to `O=C1NC(=S)NC(=O)C1=Cc1ccc(Br)s1`, the EC50 is 59.6 µM.

As for `CCn1c(CSc2nc3ccccc3s2)nnc1SCC(=O)c1ccc(O)c(O)c1`, the EC50 was 31.7 µM.

With `Cc1ccc(NC(=O)CCNS(=O)(=O)c2ccc3[nH]c(=O)oc3c2)cc1F`, the EC50 is > 100 µM (inactive). The same measure for `O=C(/C=C/c1ccco1)NC(=S)Nc1cccc(C(=O)O)c1`: 46.8 µM. To `Cc1ccc(NC(=O)CCNS(=O)(=O)c2ccc3[nH]c(=O)oc3c2)c(Cl)c1` belongs 26.3 µM; to `O=C(O)CC(C(=O)O)N1C(=O)/C(=C/c2ccc(-c3nc4ccccc4s3)o2)SC1=S` (configuration not stated), 60.8 µM. The same measure for `CN(CC(=O)Nc1cccc(Cl)c1)S(=O)(=O)c1ccc2[nH]c(=O)oc2c1`: > 100 µM (inactive); for `S=C(NCc1ccccc1)NC1CCSc2ccccc21` (configuration not stated): > 100 µM (inactive).

Turning to `Cc1ccc(NC(=O)CN(C)S(=O)(=O)c2ccc3[nH]c(=O)oc3c2)c(C)c1`, the EC50 was 64.6 µM.

For `CC1CC(=O)c2c(cc3c(-c4c(O)cc(O)c5c(O)c6c(cc45)OC(C)CC6=O)c(O)cc(O)c3c2O)O1` (configuration not stated), the EC50 was 21.1 µM. The same measure for `Cc1ccc(C)c(S(=O)(=O)Nc2ccc(O)c(Sc3ncn[nH]3)c2)c1`: 13.1 µM; for `O=C(N/N=C/c1ccc([N+](=O)[O-])o1)c1sc2ccccc2c1Cl`: > 100 µM (inactive); for `O=C(Nc1ccc(Cl)c(C(F)(F)F)c1)NC1CC2CCCC(C1)N2Cc1ccccc1` (configuration not stated): > 100 µM (inactive).

For the compound `Oc1ccc(C[C@H]2NCCc3cc(O)c(O)cc32)cc1O`, the EC50 is > 100 µM (inactive).

On to `O=C(CN1C(=O)/C(=C/c2ccco2)SC1=S)NC1CCS(=O)(=O)C1` (configuration not stated), for which the EC50 was > 100 µM (inactive). For the compound `COc1ccc(OC)c(S(=O)(=O)Nc2ccc(O)c(Sc3ncn[nH]3)c2)c1`, the EC50 is 57.5 µM. The same measure for `O=C(COC(=O)c1ccc(Br)o1)Nc1ncc([N+](=O)[O-])s1`: 60.5 µM; for `O=C(N/N=C/c1ccc(O)c(O)c1)N/N=C/c1ccc(O)c(O)c1`: 29.6 µM. In the case of `O=C(N/N=C/c1ccc(O)cc1O)C(=O)N/N=C/c1ccc(O)cc1O`, the EC50 was > 100 µM (inactive). For `O=C(O)C(c1ccccc1)N1C(=O)/C(=C\c2ccc(O)c(O)c2)SC1=S` (configuration not stated), the EC50 was 62.9 µM.

Take `Cc1ccc(C(=O)Nc2nnc(CC(=O)N/N=C/c3ccc(O)c(O)c3)s2)cc1`: the concentration giving a half-maximal response (EC50) was 49.7 µM.

Take `Cc1ccc(C)c(NC(=O)CCNS(=O)(=O)c2ccc3[nH]c(=O)oc3c2)c1`: the EC50 was > 100 µM (inactive). The same measure for `Cc1ccc(CN2C3CCCC2CC(NC(=S)NCc2ccccc2)C3)cc1` (configuration not stated): > 100 µM (inactive); for `CNc1nnc(-c2cc3ccccc3oc2=O)s1`: > 100 µM (inactive).

As for `O=C(CCN1C(=O)/C(=C/c2ccco2)SC1=S)Nc1ccc(C(=O)O)c(O)c1`, the EC50 was 27.6 µM. To `O=C(Cc1nnc(NC(=O)c2ccccc2)s1)N/N=C\c1ccc(O)c(O)c1` belongs > 100 µM (inactive); to `O=C(O)Cc1ccc(O)c(O)c1`, > 100 µM (inactive); to `O=C(NN1C(=O)/C(=C/C=C/c2ccco2)SC1=S)c1ccncc1`, > 100 µM (inactive). The same measure for `NS(=O)(=O)c1cc(C(=O)NC2CCSc3ccccc32)ccc1Cl` (configuration not stated): 63.9 µM. On to `COc1cc(OC)c(NC(=O)CN(C)S(=O)(=O)c2ccc3[nH]c(=O)oc3c2)cc1Cl`, for which the half-maximal effective concentration (EC50) was 69.8 µM. The same measure for `Cc1cc(C)c(S(=O)(=O)Nc2ccc(O)c(Sc3ncn[nH]3)c2)cc1C`: 55 µM; for `O=c1cc(-c2ccc(O)cc2)oc2c(O)c(O)c(O)c(O)c12`: 59.6 µM; for `Nc1cc2nc3ccccc3oc-2cc1=O`: 57.2 µM. To `Oc1ccc(/C=N/N=C/c2ccc(O)c(O)c2)cc1O` belongs 68 µM. Turning to `CN(C)c1ccc(N=Nc2nc3ccccc3n2C)cc1`, the EC50 is 48.3 µM. The same measure for `CCN1/C(=C/C=C/c2oc3ccc(-c4ccccc4)cc3[n+]2CC)Oc2ccc(-c3ccccc3)cc21`: 24.5 µM; for `Cc1ccc(/C=C2/SC(=O)NC2=S)o1`: 55.9 µM; for `COc1ccc(OC)c(NC(=O)CCNS(=O)(=O)c2ccc3[nH]c(=O)oc3c2)c1`: > 100 µM (inactive). To `O=C(CN1C(=O)/C(=C/c2ccco2)SC1=S)Nc1ccc(C(=O)O)c(O)c1` belongs > 100 µM (inactive); to `Cc1cc(/C=C2\SC(=S)NC2=O)c(C)[nH]1`, 61.1 µM. To `O=C(CSc1n[nH]c(-c2ccccc2)n1)c1ccc(O)c(O)c1` belongs 65.3 µM; to `O=C(CCO)c1ccc(O)cc1`, 18.9 µM; to `Cc1cc(=O)[nH]c(N/N=C/c2ccc(O)c(O)c2)n1`, 65.7 µM. Regarding `COc1cccc(CNC(=O)CCNS(=O)(=O)c2ccc3[nH]c(=O)oc3c2)c1`, the EC50 was > 100 µM (inactive). To `Oc1ccc(/C=N/Nc2cc(N3CCCC3)nc(N3CCCC3)n2)cc1O` belongs > 100 µM (inactive); to `O=C1C=C(O)c2c(O)cc(O)c(O)c2C1=O`, > 100 µM (inactive); to `CN(CCO)c1ccc(C=NNc2ccc([N+](=O)[O-])cc2S(=O)(=O)Nc2ccccc2C(=O)O)cc1`, 26 µM. To `O=C(N/N=C/c1cn(Cc2cccc(F)c2)c2ccccc12)c1cc(O)cc(O)c1` belongs 53.3 µM; to `O=C(NNC(=S)NC(=O)c1cccs1)c1ccc(O)cc1`, 36.8 µM; to `O=C(CN1CCN(c2ccccc2F)CC1)c1ccc(O)c(O)c1`, > 100 µM (inactive).

With `Cc1ccc(N2C(=O)/C(=C/c3ccc(CN(CCC#N)S(C)(=O)=O)o3)C(=O)NC2=S)cc1`, the EC50 is 40.7 µM. To `O=[N+]([O-])c1cc(S(=O)(=O)c2ccc(O)c([N+](=O)[O-])c2)ccc1O` belongs > 100 µM (inactive).

For `O=C1NC(=S)NC(=O)C1=Cc1ccc2c(c1)CCN2CCCCl`, the concentration for a half-maximal effect (EC50) was 57.5 µM. As for `CC(C)c1ccc(NC(=O)NC2CCN(CC(=O)Nc3cccc4ccccc34)CC2)cc1`, the EC50 is 55.9 µM. The same measure for `CSC1=NSC2=NC(=O)/C(=C/c3coc4ccc(O)cc4c3=O)C(=N)N12`: 27.2 µM; for `O=c1oc2cc(O)ccc2s1`: 12 µM; for `CCN1/C(=C/c2ccc3cc(C)ccc3[n+]2CC)Sc2ccc3sccc3c21`: 65.3 µM. To `COc1cccc(C(C)NC(=O)Nc2cccc(C(F)(F)F)c2)c1` (configuration not stated) belongs > 100 µM (inactive); to `O=C(CSc1nc2ccccc2o1)N/N=C/c1ccc(O)c(O)c1`, 67.5 µM; to `C=CCn1c(SCC(=O)c2ccc(O)c(O)c2)nnc1-c1cccc(OC)c1`, 47.8 µM.

Take `O=c1[nH]c(/C=C\c2ccc(O)c(O)c2)nc(O)c1[N+](=O)[O-]`: the EC50 is > 100 µM (inactive).

Take `Oc1cc(O)c2c(c1)O[C@H](c1ccc(O)c(O)c1)[C@H](O)C2`: the EC50 was 51.3 µM.

Consider `Cc1cc(O)c2c(c1O)C(=O)[C@]13C(=C2O)C(=O)[C@@H]2[C@@H](O)[C@H]1[C@@H]1[C@H](O)[C@H]3C(=O)C3=C(O)c4c(O)cc(C)c(O)c4C(=O)[C@]312`, for which the EC50 is 66.3 µM. The same measure for `COc1ccc(N=C2SC(C(N)=O)CC(=O)N2CCc2ccc(OC)c(OC)c2)cc1` (configuration not stated): 26.1 µM; for `COc1ccc(S(=O)(=O)Nc2ccc(O)c(Sc3ncn[nH]3)c2)cc1`: 68.6 µM; for `Cc1c(CN2CCC(C(=O)Nc3cccc(-c4cccc(Cl)c4)c3)CC2)cnn1C`: 71.6 µM. The same measure for `Cc1ccc(NS(=O)(=O)c2ccc3[nH]c(=O)oc3c2)c(C)c1`: 89 µM; for `COc1ccc(NC(=O)CCNS(=O)(=O)c2ccc3[nH]c(=O)oc3c2)cc1Cl`: 54 µM. To `NS(=O)(=O)c1ccc(NC(=S)NC(=O)/C=C/c2ccco2)cc1` belongs > 100 µM (inactive). Regarding `O=S(=O)(c1cc(O)ccc1O)c1cccc2c(S(=O)(=O)c3cc(O)ccc3O)cccc12`, the EC50 was 24.3 µM. On to `NS(=O)(=O)c1ccc(-c2ccc(/C=C3\SC(=S)N(C4CCS(=O)(=O)C4)C3=O)o2)cc1` (configuration not stated), for which the EC50 was 17.6 µM. To `N#Cc1cccc(NC(=O)CCNS(=O)(=O)c2ccc3[nH]c(=O)oc3c2)c1` belongs 89.7 µM; to `CCOC(=O)CN1C(=O)/C(=C2\SC(=S)N(NC(=O)c3cccnc3)C2=O)c2ccccc21`, 35.1 µM; to `Oc1cc2c(cc1O)C1c3ccc(O)c(O)c3OCC1(O)C2` (configuration not stated), 60.4 µM. To `COc1cc(/C=C(\C#N)C(=O)c2ccc(O)c(O)c2)cc(I)c1O` belongs > 100 µM (inactive); to `CC(C(=O)Nc1ccc(C(=O)O)c(O)c1)N1C(=O)/C(=C\c2ccco2)SC1=S` (configuration not stated), 76.8 µM.

In the case of `N#C/C(=C\c1ccc(O)c(O)c1)C(=O)c1ccc(O)c(O)c1`, the EC50 was 8.03 µM. For the compound `O=C(CCCN1C(=O)/C(=C\c2ccco2)SC1=S)Nc1ccc(O)cc1C(=O)O`, the EC50 is 44.7 µM.

Source of the values: PubChem BioAssay AID488878 (Sanford-Burnham Center for Chemical Genomics, 2010).
